Source: patent US10968203B2, “Pyrimidinyl-pyridyloxy-naphthyl compounds and methods of treating IRE1-related diseases and disorders” (Genentech, Inc., priority 2017, dated 2021)

System: XBP1s-luc 293 LUC
Test: cellular PD assay, XBP1s-LUC reporter (Example 903)
Format: cell-based
Settings: Table 1; read-out: XBP1s-luc 293 LUC (IC50)
Method in brief: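 A luciferase fusion, in frame and expressed only when the XBP1 transcript is spliced, served as the readout of cellular IRE1α activity in an XBP1-Luc reporter line.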

Row | SMILES | IC50 [nM]
1 | Cc1ccc2c(N3CCCS3(=O)=O)cccc2c1Oc1ncccc1-c1ccnc(N[C@H]2CCCNC2)n1 [Example 194, (S)-2-(6-Methyl-5-((3-(2-(piperidin-3-ylamino)pyrimidin-4-yl)pyridin-2-yl)oxy)naphthalen-1-yl)isothiazolidine 1,1-dioxide] | 313
2 | Cc1ccc2c(NS(=O)(=O)N3CCC3)cccc2c1Oc1ncccc1-c1ccnc(N[C@H]2CCCNC2)n1 [Example 195, (S)—N-(6-Methyl-5-((3-(2-(piperidin-3-ylamino)pyrimidin-4-yl)pyridin-2-yl)oxy)naphthalen-1-yl)azetidine-1-sulfonamide] | 202
3 | CCCCNc1cccc2c(Oc3ncccc3-c3ccnc(N[C@H]4CCCNC4)n3)c(C)ccc12 [Example 197, (S)-4-(2-((5-(Butylamino)-2-methylnaphthalen-1-yl)oxy)pyridin-3-yl)-N-(piperidin-3-yl)pyrimidin-2-amine] | 228
4 | Cc1ccc2c(NC(=O)CC(C)(C)C)cccc2c1Oc1ncccc1-c1ccnc(N[C@H]2CCCNC2)n1 [Example 198, (S)-3,3-Dimethyl-N-(6-methyl-5-((3-(2-(piperidin-3-ylamino)pyrimidin-4-yl)pyridin-2-yl)oxy)naphthalen-1-yl)butanamide] | 161
5 | Cc1ccc2c(NC(=O)Cc3ccc(F)cc3)cccc2c1Oc1ncccc1-c1ccnc(N[C@H]2CCCNC2)n1 [Example 199, (S)-2-(4-Fluorophenyl)-N-(6-methyl-5-((3-(2-(piperidin-3-ylamino)pyrimidin-4-yl)pyridin-2-yl)oxy)naphthalen-1-yl)acetamide] | 155
6 | CC[C@H](C)C(=O)Nc1cccc2c(Oc3ncccc3-c3ccnc(N[C@H]4CCCNC4)n3)c(C)ccc12 [Example 203, (S)-2-methyl-N-(6-methyl-5-((3-(2-(((S)-piperidin-3-yl)amino)pyrimidin-4-yl)pyridin-2-yl)oxy)naphthalen-1-yl)butanamide] | 161
7 | CC[C@@H](C)C(=O)Nc1cccc2c(Oc3ncccc3-c3ccnc(N[C@H]4CCCNC4)n3)c(C)ccc12 [Example 204, (R)-2-methyl-N-(6-methyl-5-((3-(2-(((S)-piperidin-3-yl)amino)pyrimidin-4-yl)pyridin-2-yl)oxy)naphthalen-1-yl)butanamide] | 449
8 | Cc1cnn(-c2cccc3c(Oc4ncccc4-c4ccnc(N[C@H]5CCCNC5)n4)c(C)ccc23)c1 [Example 207, (S)-4-(2-((2-Methyl-5-(4-methyl-1H-pyrazol-1-yl)naphthalen-1-yl)oxy)pyridin-3-yl)-N-(piperidin-3-yl)pyrimidin-2-amine] | 251
9 | Cc1ccc2c(NS(=O)(=O)Cc3ccc(Cl)cc3)c(F)ccc2c1Oc1ncccc1-c1ccnc(N[C@H]2CCCNC2)n1 [Example 209, (S)-1-(4-Chlorophenyl)-N-(2-fluoro-6-methyl-5-((3-(2-(piperidin-3-ylamino)pyrimidin-4-yl)pyridin-2-yl)oxy)naphthalen-1-yl)methanesulfonamide] | 8.04
10 | Cc1ncc(S(=O)(=O)Nc2cccc3c(Oc4ncccc4-c4ccnc(N[C@H]5CCCNC5)n4)c(C)ccc23)s1 [Example 210, (S)-2-Methyl-N-(6-methyl-5-((3-(2-(piperidin-3-ylamino)pyrimidin-4-yl)pyridin-2-yl)oxy)naphthalen-1-yl)thiazole-5-sulfonamide] | 459
11 | Cc1ccc2c(NCc3cscn3)cccc2c1Oc1ncccc1-c1ccnc(N[C@H]2CCCNC2)n1 [Example 211, (S)-4-(2-((2-Methyl-5-((thiazol-4-ylmethyl)amino)naphthalen-1-yl)oxy)pyridin-3-yl)-N-(piperidin-3-yl)pyrimidin-2-amine] | 70
12 | Cc1ccc2c(NS(=O)(=O)Cc3c(F)cccc3F)c(F)ccc2c1Oc1ncccc1-c1ccnc(N[C@H]2CCCNC2)n1 [Example 213, (S)-1-(2,6-Difluorophenyl)-N-(2-fluoro-6-methyl-5-((3-(2-(piperidin-3-ylamino)pyrimidin-4-yl)pyridin-2-yl)oxy)naphthalen-1-yl)methanesulfonamide] | 4.57
